Experimental data published in patent publication US10294202B2, “Pyrrolidinones as herbicides” (FMC Corporation, priority 2013, dated 2019).
“And” between values parts separate entries of the source, which are not always exact repeats. Equal entries are not always repeated.

How the values were obtained:
rice, transplanted = assay: Test F flood (paddy) test; assay type: in vivo, Oryza sativa cv. Japonica—M202; conditions: 21 d, scale 0-100
Source text: (§1) Three plastic pots (ca. 16-cm diameter) per rate were partially filled with sterilized Tama silt loam soil comprising a 35:50:15 ratio of sand, silt and clay and 2.6% organic matter. Separate plantings for each of the three pots were as follows. Seeds from the U.S. of monochoria (Monochoria vaginalis), sedge, umbrella (small-flower umbrella sedge, Cyperus difformis), bulrush, […] bulrush, Scirpus juncoides), and […] (purple […] coccinea), were planted into one 16-cm pot for each rate. Seeds from the U.S. of flatsedge, rice (rice flatsedge, Cyperus iria), sprangletop, Brdd. (bearded sprangletop, Leptochloa fascicularis), one stand of 9 or 10 water seeded rice seedlings (Rice, W.S. Jap, Oryza sativa cv. 'Japonica-[…]' or Rice, W.S. Ind, 'Indica'), and two stands of 3 or 4 seedlings of rice, transplanted (transplanted rice, Oryza sativa cv. 'Japonica-[…]') were planted into one 16-cm pot for each rate. Seeds from the U.S. of barnyardgrass (Echinochloa crus-galli), […] (common […], Alisma plantago-aquatica), and watergrass, late (late watergrass, Echinochloa oryzicola) were planted into one 16-cm pot for each rate. Plantings were sequential so that crop and weed species were at the 2.0 to 2.5-leaf stage at time of treatment. Potted plants were grown in a greenhouse with day/night temperature settings of 30/27° C., and supplemental balanced lighting was provided to maintain a 16-h photoperiod. Test pots were maintained in the greenhouse until test completion. At time of treatment, test pots were flooded to 3 cm above the soil surface, treated by application of test compounds directly to the paddy water, and then maintained at that water depth for the duration of the test. Effects of treatments on rice and weeds were visually evaluated by comparison to untreated controls after 21 d. Plant response ratings, summarized in Table F, are based on a scale of 0 to 100 where 0 is no effect and 100 is complete control. A dash (-) response means no test result.

pigweed = assay: Test A pre-/postemergence herbicide test; assay type: in vivo, Amaranthus retroflexus; conditions: 1000 g ai/ha
Method in brief: (§2)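 Both application timings used compounds in a non-phytotoxic solvent plus surfactant. Pre-emergence: soil sprayed directly after seeding into loam/sand. Post-emergence: foliage of 2–10 cm seedlings (1–2 leaves) sprayed. Injury rated ~10 days later, 0–100.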

barnyardgrass [1] = assay: Test B flooded paddy test; assay type: in vivo, Echinochloa crus-galli; conditions: 1000 g ai/ha, Flood; scale of 0 to 100 where 0 is no effect and 100 is complete control
Method in brief: (§3)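 Plants were grown to the 2-leaf stage, then pots were flooded to 3 cm above the soil and compound was applied directly into the paddy water, with that depth held throughout. After 13 to 15 days in a greenhouse, injury was rated visually against untreated controls on a 0 to 100 scale (100 = complete control).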

rice = assay: Test B flooded paddy test; assay type: in vivo, Oryza sativa; conditions: 1000 g ai/ha, Flood; scale of 0 to 100 where 0 is no effect and 100 is complete control
Method in brief: as §3

giant foxtail = assay: Test A pre-/postemergence herbicide test; assay type: in vivo, Setaria faberii; conditions: 1000 g ai/ha
Method in brief: as §2

wheat = assay: Test A pre-/postemergence herbicide test; assay type: in vivo, Triticum aestivum; conditions: 1000 g ai/ha
Method in brief: as §2

velvetleaf = assay: Test A pre-/postemergence herbicide test; assay type: in vivo, Abutilon theophrasti; conditions: 1000 g ai/ha
Method in brief: as §2

crabgrass, large = assay: Test A pre-/postemergence herbicide test; assay type: in vivo, Digitaria sanguinalis; conditions: 1000 g ai/ha
Method in brief: as §2

ducksalad = assay: Test B flooded paddy test; assay type: in vivo, Heteranthera limosa; conditions: 1000 g ai/ha, Flood; scale of 0 to 100 where 0 is no effect and 100 is complete control
Method in brief: as §3

sprangletop, Brdd. = assay: Test F flood (paddy) test; assay type: in vivo, Leptochloa fascicularis; conditions: 21 d, scale 0-100
Source text: as §1

monochoria = assay: Test F flood (paddy) test; assay type: in vivo, Monochoria vaginalis; conditions: 21 d, scale 0-100
Source text: as §1

barnyardgrass [2] = assay: Test F flood (paddy) test; assay type: in vivo, Echinochloa crus-galli; conditions: 21 d, scale 0-100
Source text: as §1

morningglory = assay: Test A pre-/postemergence herbicide test; assay type: in vivo, Ipomoea spp.; conditions: 1000 g ai/ha
Method in brief: as §2

sedge, umbrella = assay: Test B flooded paddy test; assay type: in vivo, Cyperus difformis; conditions: 1000 g ai/ha, Flood; scale of 0 to 100 where 0 is no effect and 100 is complete control
Method in brief: as §3

Rice, W.S. Ind = assay: Test F flood (paddy) test; assay type: in vivo, Oryza sativa Indica; conditions: 21 d, scale 0-100
Source text: as §1

barnyardgrass [3] = assay: Test A pre-/postemergence herbicide test; assay type: in vivo, Echinochloa crus-galli; conditions: 1000 g ai/ha
Method in brief: as §2

watergrass, late = assay: Test F flood (paddy) test; assay type: in vivo, Echinochloa oryzicola; conditions: 21 d, scale 0-100
Source text: as §1

corn = assay: Test A pre-/postemergence herbicide test; assay type: in vivo, Zea mays; conditions: 1000 g ai/ha
Method in brief: as §2

[4] = test system: small-flower umbrella sedge (CYPDI); assay: Test G paddy mixture test (Colby); assay type: in vivo, Cyperus difformis; conditions: applied alone, 14 d; for CYPDI Obsd. plant response rating (scale 0 to 100): flooded; for CYPDI Obsd.: scale 0-100
Description: (§4) Seeds of small-flower umbrella […], Cyperus difformis) and […], Heteranthera limosa) were sown on the soil surface in two separate quadrants of 11-cm (4-inch) tubs filled with steam pasteurized Tama soil. Simultaneously, plantings of […], Echinochloa crus-galli) and transplanted japonica rice (ORYSA, Oryza sativa) were established in separate “plug” flats. […] Herbicide application timing was targeted at the 2.0 to 2.5 leaf stage and the plants were treated with test chemicals formulated in a non-phytotoxic solvent. Treated plants and controls were maintained in a greenhouse for 14 d, after which time all species were compared to controls and visually evaluated. Plant response ratings are summarized in Tables G1 through G12, and are based on a scale of 0 to 100 where 0 is no effect and 100 is complete control. A dash (-) response means no test result. Colby's Equation was used to determine the herbicidal effects expected from the mixtures. Colby's Equation (Colby, S. R. “Calculating Synergistic and Antagonistic Responses of Herbicide Combinations,” Weeds, 15(1), pp 20-22 (1967)) calculates the expected additive effect of herbicidal mixtures and for two active ingredients is of the form: Pa+b=Pa+Pb-(PaPb/100) where • Pa+b is the percentage effect of the mixture expected from additive contribution of the individual components: • Pa is the observed percentage effect of the first active ingredient at the same use rate as in the mixture, and • Pb is the observed percentage effect of the second active ingredient at the same use rate as in the mixture. In the following Tables, rates are shown in grams of active ingredient per […]); “Obsd.” is the observed effect. “Exp.” is the expected effect calculated from Colby's Equation.

[5] = test system: transplanted japonica rice (ORYSA); assay: Test G paddy mixture test (Colby); assay type: in vivo, Oryza sativa; conditions: applied alone, 14 d; for ORYSA Obsd. plant response rating (scale 0 to 100): flooded; for ORYSA Obsd.: scale 0-100
Description: as §4

ducksalad (HETLI) = assay: Test G paddy mixture test (Colby); assay type: in vivo, Heteranthera limosa; conditions: applied alone, 14 d; for HETLI Obsd. plant response rating (scale 0 to 100): flooded; for HETLI Obsd.: scale 0-100
Description: as §4

barnyardgrass (ECHCG) = assay: Test G paddy mixture test (Colby); assay type: in vivo, Echinochloa crus-galli; conditions: applied alone, 14 d; for ECHCG Obsd. plant response rating (scale 0 to 100): flooded; for ECHCG Obsd.: scale 0-100
Description: as §4

[6] = Postemergence, 0 to 100 scale (0 no effect, 100 complete control)
[7] = Preemergence, visual rating on 0 to 100 scale (0 no effect, 100 complete control), approx. 10 days

## O=C1NCC(c2ccc(F)c(F)c2)C1C(=O)Nc1ccccc1Cl (racemic) [Compound 99]
rice, transplanted; 125 g ai/ha
  Plant response rating, Rice, Transplanted: 0
rice, transplanted; 250 g ai/ha
  Plant response rating, Rice, Transplanted: 0
rice, transplanted; 500 g ai/ha
  Plant response rating, Rice, Transplanted: 0
pigweed; [6]
  Plant response rating, Pigweed: 0
pigweed; [7]
  Plant response rating, Pigweed: 0
Barnyardgrass [1]
  Plant response rating, Barnyardgrass: 80
rice
  Plant response rating, Rice: 10
Giant foxtail; [6]
  Plant response rating, Foxtail, Giant: 90
Giant foxtail; [7]
  Plant response rating, Foxtail, Giant: 90
wheat; [6]
  Plant response rating, Wheat: 20
wheat; [7]
  Plant response rating, Wheat: 20
velvetleaf; [6]
  Plant response rating, Velvetleaf: 10
velvetleaf; [7]
  Plant response rating, Velvetleaf: 0
crabgrass, large; [6]
  Plant response rating, Crabgrass, Large: 90
crabgrass, large; [7]
  Plant response rating, Crabgrass, Large: 90
ducksalad
  Plant response rating, Ducksalad: 95
sprangletop, Brdd.; 125 g ai/ha
  Plant response rating, Sprangletop, Brdd.: 0
sprangletop, Brdd.; 250 g ai/ha
  Plant response rating, Sprangletop, Brdd.: 75
sprangletop, Brdd.; 500 g ai/ha
  Plant response rating, Sprangletop, Brdd.: 85
monochoria; 125 g ai/ha
  Plant response rating, Monochoria: 50
monochoria; 250 g ai/ha
  Plant response rating, Monochoria: 85
monochoria; 500 g ai/ha
  Plant response rating, Monochoria: 95
Barnyardgrass [2]; 125 g ai/ha
  Plant response rating, Barnyardgrass: 25
Barnyardgrass [2]; 250 g ai/ha
  Plant response rating, Barnyardgrass: 50
Barnyardgrass [2]; 500 g ai/ha
  Plant response rating, Barnyardgrass: 80
morningglory; [6]
  Plant response rating, Morningglory: 10
morningglory; [7]
  Plant response rating, Morningglory: 0
sedge, umbrella
  Plant response rating, Sedge, Umbrella: 0
Rice, W.S. Ind; 125 g ai/ha
  Plant response rating, Rice, W.S. Ind: 0
Rice, W.S. Ind; 250 g ai/ha
  Plant response rating, Rice, W.S. Ind: 0
Rice, W.S. Ind; 500 g ai/ha
  Plant response rating, Rice, W.S. Ind: 0
Barnyardgrass [3]; [6]
  Plant response rating, Barnyardgrass: 90
Barnyardgrass [3]; [7]
  Plant response rating, Barnyardgrass: 90
watergrass, late; 125 g ai/ha
  Plant response rating, Watergrass, Late: 30
watergrass, late; 250 g ai/ha
  Plant response rating, Watergrass, Late: 40
watergrass, late; 500 g ai/ha
  Plant response rating, Watergrass, Late: 50
corn; [6]
  Plant response rating, Corn: 20
corn; [7]
  Plant response rating, Corn: 20

## CCN(C(=O)n1nnn(-c2ccccc2Cl)c1=O)C1CCCCC1 [Fentrazamide]
[4]; 100 g a.i./ha
  CYPDI Obsd. plant response rating (scale 0 to 100): 90 and 100
[4]; 200 g a.i./ha
  CYPDI Obsd. plant response rating (scale 0 to 100): 100
[5]; 100 g a.i./ha
  ORYSA Obsd. plant response rating (scale 0 to 100): 0
Ducksalad (HETLI); 100 g a.i./ha
  HETLI Obsd. plant response rating (scale 0 to 100): 85 and 100
Ducksalad (HETLI); 200 g a.i./ha
  HETLI Obsd. plant response rating (scale 0 to 100): 100
Barnyardgrass (ECHCG); 100 g a.i./ha
  ECHCG Obsd. plant response rating (scale 0 to 100): 50 and 85
Barnyardgrass (ECHCG); 200 g a.i./ha
  ECHCG Obsd. plant response rating (scale 0 to 100): 95 and 85

## CN(C(=O)COc1nc2ccccc2s1)c1ccccc1 [Mefenecet]
[4]; 300 g a.i./ha
  CYPDI Obsd.: 100
Ducksalad (HETLI); 300 g a.i./ha
  HETLI Obsd.: 100

## COCc1cccc(C(O)c2nc(OC)cc(OC)n2)c1NS(=O)(=O)C(F)F (stereo not drawn) [Pyrimisulfan]
[4]; 20 g a.i./ha
  CYPDI Obsd.: 98 and 100
[5]; 20 g a.i./ha
  ORYSA Obsd.: 25 and 20
Ducksalad (HETLI); 20 g a.i./ha
  HETLI Obsd.: 100
Barnyardgrass (ECHCG); 20 g a.i./ha
  ECHCG Obsd.: 75 and 80

## CS(=O)(=O)c1ccc(C(=O)C2C(=O)CCCC2=O)c(Cl)c1COCC1CCCO1 (stereo not drawn) [Tefuryltrione]
[4]; 100 g a.i./ha
  CYPDI Obsd.: 90
  CYPDI Obsd. plant response rating (scale 0 to 100): 100
[5]; 100 g a.i./ha
  ORYSA Obsd.: 0
  ORYSA Obsd. plant response rating (scale 0 to 100): 0
Ducksalad (HETLI); 100 g a.i./ha
  HETLI Obsd.: 90
  HETLI Obsd. plant response rating (scale 0 to 100): 100
Barnyardgrass (ECHCG); 100 g a.i./ha
  ECHCG Obsd.: 0
  ECHCG Obsd. plant response rating (scale 0 to 100): 40

## COc1nc(OC)nc(C(=O)c2cccc(F)c2N(C)S(=O)(=O)C(F)F)n1 [Triafamone, N-[2-[(4,6-dimethoxy-1,3,5-triazin-2-yl)carbonyl]-6-fluorophenyl]-1,1-difluoro-N-methylmethanesulfonamide]
[4]; 20 g a.i./ha
  CYPDI Obsd.: 0
[5]; 20 g a.i./ha
  ORYSA Obsd.: 0
Ducksalad (HETLI); 20 g a.i./ha
  HETLI Obsd.: 0
Barnyardgrass (ECHCG); 20 g a.i./ha
  ECHCG Obsd.: 90 and 85
